Reference: patent US5468469A, “Methods of using azo dyes and their derivatives” (The United States of America as represented by the …, priority 1994, dated 1995)

What was measured:
[1] = tested on: HIV isolate LAV-1BR; test: HIV replication in phytohemagglutinin-stimulated human PBL, intracellular p24 ELISA; format: cell-based; conditions: six days culture; for pg/ml HIV p24: virus only 101,000
Text: The ability of the azo dyes to negatively affect HIV replication was verified after six days of culturing the HIV isolate LAV-1BR in phytohemagglutinin-stimulated human PBL. For this experiment, the amount of intracellular HIV p24 protein in cell lysates was quantitated with use of an HIV p24 enzyme linked immunosorbent assay kit (Cellular Products, Buffalo, N.Y.) as described in Anand et al., AIDS Res. Human Retrovir., 6, 679-689 (1990). This measure of p24 protein was considered an indication of HIV replication. Aurintricarboxylic acid (ATA; Sigma Chemical Co., St. Louis, Mo.) was included in this experiment as a positive control, and the solvent DMSO was utilized for further comparative purposes.

[2] = target: T1, CD4 (Homo sapiens, UniProt P01730); test: Dose-response of inhibition of αCD4 binding in presence (RPMI 1640 with 5% serum) and absence (PBS) of serum; conditions: RPMI 1640 with 5% serum versus PBS; FIG. 1
T1 construct: PBL were prepared by density gradient centrifugation; endogenous in cells; host or cells: human peripheral blood lymphocytes (PBL)
Protocol: (§1) For these binding assays, PBL were prepared by density gradient centrifugation, and the effect of the azo dyes on the binding of anti-CD4-FITC (Becton Dickinson, Mountain View, Calif.) was measured (Weaver et al., supra). Cells were treated with an azo dye for at least 10 minutes at room temperature, or for more than 30 minutes at 4° C., and were then contacted with FITC-labeled antibody. Binding was measured by quantitating cell bound fluorescence using flow cytometry.

[3] = target: T2, CD8 (αCD8 binding to PBL) (Homo sapiens, UniProt P01732); test: Specificity: binding of αCD8-FITC to PBL; conditions: PBS, % logarithmic mean channel number of αCD8-FITC binding, read-out: % Control Binding (αCD8)
T2 construct: endogenous in cells; host or cells: human peripheral blood lymphocytes (PBL)
T2 sequence (P01732 22-235): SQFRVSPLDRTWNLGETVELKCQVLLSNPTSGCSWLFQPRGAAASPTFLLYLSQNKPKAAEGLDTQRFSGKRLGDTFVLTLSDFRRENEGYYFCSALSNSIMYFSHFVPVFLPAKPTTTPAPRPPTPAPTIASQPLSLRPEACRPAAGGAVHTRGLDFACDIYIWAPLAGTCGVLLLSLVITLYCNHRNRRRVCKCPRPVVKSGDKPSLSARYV
T2 sequence (P10966 22-210 partner): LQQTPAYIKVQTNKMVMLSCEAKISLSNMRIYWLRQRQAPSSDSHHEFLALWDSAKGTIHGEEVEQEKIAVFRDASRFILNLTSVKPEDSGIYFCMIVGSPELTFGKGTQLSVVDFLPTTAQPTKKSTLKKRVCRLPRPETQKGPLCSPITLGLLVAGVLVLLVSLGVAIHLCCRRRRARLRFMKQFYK
Protocol: as §1, with “Since anti-Leu3a (αCD4) and recombinant HIV coat protein (rgp120) bind to the same site on the CD4 molecule, interference in binding of CD4 confirms interference in HIV binding to αCD4 (Weaver et al., AIDS Res. Human Retrovir., 6, 1125-1130 (1990)). For” for “For”
The specificity of the dyes was confirmed by testing their ability to interfere with the binding of two other monoclonal antibodies, αCD3 and αCD8, to PBL using the binding assay described in Example 1.

[4] = target: T1, CD4; test: Inhibition of binding of αCD4-FITC (anti-Leu3a) to PBL, flow cytometry
Protocol: as §1

[5] = tested on: PBL; test: Viability of PBL after 72 hour culture with αTCR stimulation, propidium iodide exclusion; format: cell-based, human
Protocol: (§2) Cells were then washed once in PBS, and resuspended in PBS with 3 μg/ml propidium iodide. After 10 minutes incubation, the cells were analyzed by flow cytometry. Live cells were defined as those excluding propidium iodide.

[6] = as above; format: cell-based, human; conditions: pbl
Protocol: as §2

[7] = target: T3, HIV rgp120 binding to CD4 (Homo sapiens, UniProt P01730); test: Inhibition of HIV rgp120 binding to CD4 on PBL, detected with anti-rgp120-FITC; conditions: PBS, % logarithmic mean channel number of rgp120 binding detected by αrgp120-FITC
T3 construct: PBL were prepared by density gradient centrifugation; endogenous in cells; host or cells: human peripheral blood lymphocytes (PBL)
Protocol: as §1, with “Since anti-Leu3a (αCD4) and recombinant HIV coat protein (rgp120) bind to the same site on the CD4 molecule, interference in binding of CD4 confirms interference in HIV binding to αCD4 (Weaver et al., AIDS Res. Human Retrovir., 6, 1125-1130 (1990)). For” for “For”
The ability of Direct Orange 26, Direct Red 23, Direct Red 24, and Direct Red 26 to inhibit the binding of HIV rgp120 to CD4 was determined using monoclonal anti-rgp120-FITC (Genentech, Inc., San Francisco, Calif.) to detect recombinant HIV coat protein in the binding assay described in Example 1.

[8] = target: T4, CD3 (αCD3 binding to PBL) (Homo sapiens, UniProt P07766); test: Specificity: binding of αCD3-FITC to PBL; conditions: PBS, % logarithmic mean channel number of αCD3-FITC binding, read-out: % Control Binding (αCD3)
T4 construct: endogenous in cells; host or cells: human peripheral blood lymphocytes (PBL)
T4 sequence (P07766 23-207): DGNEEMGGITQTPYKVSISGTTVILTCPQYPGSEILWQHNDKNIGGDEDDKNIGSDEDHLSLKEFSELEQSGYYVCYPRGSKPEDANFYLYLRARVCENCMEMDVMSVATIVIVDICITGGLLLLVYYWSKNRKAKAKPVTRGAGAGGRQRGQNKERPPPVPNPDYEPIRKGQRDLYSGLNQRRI
T4 sequence (P04234 22-171 partner): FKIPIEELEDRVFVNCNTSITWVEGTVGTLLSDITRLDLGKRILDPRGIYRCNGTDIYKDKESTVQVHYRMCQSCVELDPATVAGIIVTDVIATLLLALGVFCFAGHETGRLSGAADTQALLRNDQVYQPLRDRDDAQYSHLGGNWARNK
T4 sequence (P09693 23-182 partner): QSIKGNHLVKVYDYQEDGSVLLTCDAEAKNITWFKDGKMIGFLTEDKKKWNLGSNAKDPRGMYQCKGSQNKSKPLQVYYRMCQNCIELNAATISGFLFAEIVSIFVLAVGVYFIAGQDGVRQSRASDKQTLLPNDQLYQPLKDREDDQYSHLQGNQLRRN
T4 sequence (P20963 22-164 partner): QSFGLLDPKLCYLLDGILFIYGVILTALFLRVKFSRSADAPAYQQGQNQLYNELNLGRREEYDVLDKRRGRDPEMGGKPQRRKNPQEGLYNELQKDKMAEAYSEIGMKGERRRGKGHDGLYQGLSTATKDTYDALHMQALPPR

[9] = read-out: % Control Binding (HIV rgp120)
[10] = 20 μM, PBS, % logarithmic mean channel number of αCD4-FITC binding

Question: For `O=C(O)C1=CC(=C(c2ccc(O)c(C(=O)O)c2)c2ccc(O)c(C(=O)O)c2)C=CC1=O` [ATA, Aurintricarboxylic acid, reference compound], which “pg/ml HIV p24” value ([1]; 50 μg/ml) is on record?
Answer: 1 pg/mL

Question: For `O=S(=O)([O-])c1ccc2c(N=Nc3ccccc3)ccc(N=Nc3ccc(Nc4ccccc4)c4c(S(=O)(=O)[O-])cccc34)c2c1.[Na+].[Na+]` [Acid Blue 116], which “Fold more dye needed to inhibit αCD4 binding in the presence of serum” value [2] is on record?
Answer: about 100 ×

Question: Which “Fold more dye needed to inhibit αCD4 binding in the presence of serum” value [2] does the source give for `Cc1ccccc1N=Nc1ccc(N=Nc2c(O)c(S(=O)(=O)[O-])cc3cc(S(=O)(=O)[O-])ccc23)c(C)c1.[Na+].[Na+]` [Acid Red 115] here?
Answer: about 100 ×

Question: What does the source list for `O=C(Nc1ccc2c(O)c(N=Nc3ccccc3)c(S(=O)(=O)O)cc2c1)Nc1ccc2c(O)c(N=Nc3ccccc3)c(S(=O)(=O)O)cc2c1` [Direct Orange 26]?
Answer: remaining activity at 10 µM [3]: 65%; Inhibition of the binding of αCD4 to CD4 (in words) ([4]; 10 μM): completely inhibited; remaining activity at 10 µM ([4]; 10 μM, PBS, % logarithmic mean channel number of αCD4-FITC binding, read-out: % Control Binding (αCD4)): 0%; Effect on PBL viability / lymphocyte proliferation (in words) [5]: only a slight negative effect; viability at 72 h, 400 µM ([6]; 400 μM, untreated 78.2, read-out: % Viable Cells): 67.5%; viability at 72 h, 800 µM ([6]; 800 μM, untreated 78.2, read-out: % Viable Cells): 71.5%; cytotoxicity at 72 h ([6]; 400-800 μM, read-out: Reduction of viability): ≤ 10%; Fold more dye needed to inhibit αCD4 binding in the presence of serum [2]: about 5 ×; remaining activity at 1 µM [7, 9]: 26%; remaining activity at 2.5 µM ([7]; 2.5 μM, read-out: % Control Binding (HIV rgp120)): 15%; pg/ml HIV p24 ([1]; 50 μg/ml): 71 pg/mL; pg/ml HIV p24 ([1]; 100 μg/ml): 61 pg/mL; Effect on HIV replication (in words) ([1]; 50-100 μg/ml): strongly decrease HIV replication; remaining activity at 10 µM [8]: 103%

Question: For `CC(=O)Nc1ccc(N=Nc2c(S(=O)(=O)O)cc3cc(NC(=O)Nc4ccc5c(O)c(N=Nc6ccccc6)c(S(=O)(=O)O)cc5c4)ccc3c2O)cc1` [Direct Red 23], which “Inhibition of the binding of αCD4 to CD4 (in words)” value (from here on “Inhibition of the binding of αCD4”) ([4]; 20 μM) is on record?
Answer: completely inhibited

Question: What about the remaining activity at 20 µM ([4]; 20 μM, PBS, % logarithmic mean channel number of αCD4-FITC binding, read-out: % Control Binding (αCD4)) of the same compound?
Answer: 0%

Question: What about the remaining activity at 5 µM ([7]; 5.0 μM, read-out: % Control Binding (HIV rgp120)) of the same compound?
Answer: 10 to 15%

Question: Which “Inhibition of the binding of αCD4” value ([4]; 20 μM) does the source give for `COc1ccccc1N=Nc1c(S(=O)(=O)[O-])cc2cc(NC(=O)Nc3ccc4c(O)c(N=Nc5ccc(S(=O)(=O)[O-])cc5C)c(S(=O)(=O)[O-])cc4c3)ccc2c1O.[Na+].[Na+].[Na+]` [Direct Red 24] here?
Answer: completely inhibited

Question: What about the “% Control Binding (αCD4)” value [4, 10] of the same compound?
Answer: 0%

Question: And the “% Control Binding (HIV rgp120)” value ([7]; 5.0 μM)?
Answer: 10-15%

Question: Which “Fold more dye needed to inhibit αCD4 binding in the presence of serum” value [2] does the source give for `COc1cc(N=Nc2cc(S(=O)(=O)[O-])cc3cc(S(=O)(=O)[O-])cc(O)c23)c(C)cc1NC(=O)Nc1cc(C)c(N=Nc2cc(S(=O)(=O)[O-])cc3cc(S(=O)(=O)[O-])cc(O)c23)cc1OC.[Na+].[Na+].[Na+].[Na+]` [Direct Red 79] here?
Answer: about 100 ×

Question: With `Cc1cc(-c2ccc(/N=N/c3ccc4c(S(=O)(=O)O)cc(S(=O)(=O)O)c(N)c4c3O)c(C)c2)ccc1/N=N/c1ccc2c(S(=O)(=O)O)cc(S(=O)(=O)O)c(N)c2c1O` [Evans Blue, Evans blue, reference compound] as the compound, how does the “% Control Binding (αCD4)” value ([4]; 1 μM, PBS, % logarithmic mean channel number of αCD4-FITC binding) read?
Answer: 1%

Question: What about the remaining activity at 1 µM ([4]; 1 μM, PBS, % logarithmic mean channel number of αCD4-FITC binding, read-out: % Control Binding (αCD4)) of the same compound?
Answer: 1%

Question: What about the remaining activity at 1 µM [7, 9] of the same compound?
Answer: 8%

Question: With Direct Red 26 as the compound, how does the “Inhibition of the binding of αCD4” value ([4]; 20 μM) read?
Answer: completely inhibited

Question: And the “% Control Binding (αCD4)” value [4, 10]?
Answer: 0%

Question: What about the “% Control Binding (HIV rgp120)” value ([7]; 5.0 μM) of the same compound?
Answer: 10-15%
